Data published in patent US7960588B2, “Benzyl cycloalkyl sphingosine 1-phosphate receptor modulators” (University of Virginia Patent Foundation, priority 2007, dated 2011).

Tested on: blood lymphocytes
Assay: Lymphopenia assay (circulating lymphocyte counts after oral gavage)
Type: in vivo
Settings: mice; for lymphopenia (circulating lymphocyte counts): single dose 10 mg/kg in 2% hydroxypropyl beta-cyclodextrin, blood drawn after 18 hours
Protocol: The test compounds VPC122096 (benzylcyclopentyl), VPC122093 (benzylcyclohexyl) or VPC122097 (benzylcycloheptyl) compounds are dissolved in 2% hydroxypropyl beta-cyclodextrin and administered to mice by oral gavage at doses from 0.01 to 10 mg/kg body weight. After 24 hours (or other specified times), the mice are lightly anesthetized and ca. 0.1 ml of blood is drawn from the orbital sinus. The number of lymphocytes (in thousands per microliter of blood; normal is 4-11) is determined using a Hemavet blood analyzer. There were three mice per group, male, 10-11 weeks old, and the strain was mixed sv129×C57BL/6.
The test compounds VPC122096, VPC122097, or VPC122093 were dissolved in 2% aqueous hydroxypropyl beta-cyclodextrin and introduced into mice by oral gavage at 10 mg/kg (Three mice per group). Blood was drawn after 18 hours and examined. […] The results are illustrated in FIG. 3.
The test compound VPC122096, was dissolved in 2% aqueous hydroxypropyl beta-cyclodextrin (vehicle) and administered to mice orally (gavage) at doses of 0.01 mg/kg, 0.03 mg/kg, 0.1 mg/kg, 0.3 mg/kg, 1 mg/kg, and 3 mg/kg to provide a dose response curve (three-four mice per group, adult, C57Bl/6 strain). The blood samples were taken at 18 hours and 42 hours. Three mice per group, male, 10-11 week old sv129/C57Bl6 strain. The results are illustrated in FIG. 4. The ordinate represents lymphocytes in K/μl. The abscissa represents time in days after administration of a single dose. The ordinate represents lymphocytes in K/μl. The abscissa represents dose in milligram compound per kilogram body weight (mpk).
The duration of the effect of the test compounds was evaluated after administration of test compound VPC122096, dissolved in 2% aqueous hydroxypropyl beta-cyclodextrin (vehicle) and administered to mice orally (gavage). […] The blood samples were taken at 16 hours, 4 days, 12 days, and 19 days. FIG. 5 illustrates total blood lymphocyte count following the single dose of VPC122096 or vehicle.

| SMILES | lymphopenia (circulating lymphocyte counts) (oral gavage) | lymphopenia, duration of the effect (total blood lymphocyte count) (oral gavage, single dose (1.0 mg/kg per FIG. 5), blood samples at 16 hours, 4 days, 12 days, 19 days) | duration of lymphopenia (single ED95 dose, oral) |
| --- | --- | --- | --- |
| CCCCCCCCc1ccc(CC2CCCC(CO)C2N)cc1 (centres unmarked) [VPC122093] | evoked lymphopenia | – | – |
| CCCCCCCCc1ccc(CC2CCCC2(N)CO)cc1 (centres unmarked) [VPC122096, (1-amino-2-(4′-octylbenzyl)cyclopentyl)methanol] | evoked lymphopenia | evoked a long lasting lymphopenia | a week or more |
| CCCCCCCCc1ccc(CC2CCCCCC2(N)CO)cc1 (centres unmarked) [VPC122097] | evoked lymphopenia | – | – |
